We go through 27 molecules from patent US8404670B2 (Sunovion Pharmaceuticals Inc., priority 2009, dated 2013).

As a reminder, the IC50 is the midpoint of a concentration-inhibition curve.

This test has as its target T1, human histamine H3 receptor (Homo sapiens, UniProt Q9Y5N1).
T1 construct: host or cells: cells expressing the human H3 receptor
In words: H3 GTPγS assay (SPA method), histamine H3 in vitro assay. As to conditions: GTPγ[35S] binding to membranes of cells expressing human H3; antagonist mode with R-γ-Me-Histamine at EC80 (30 nM); in one embodiment HCl salts tested; read-out: Potency (functional potency as indicated by IC50). Format: biochemical. As to the method: H3 GTPγS assay (SPA method) was performed at EuroScreen (Belgium, ES-392-C) using conventional methods. Briefly, cells expressing the human histamine H3 receptor were homogenized in 15 mM Tris-HCl pH 7.5, 2 mM MgCl2, 0.3 mM EDTA, and 1 mM EGTA. Membranes were washed twice in the above tris buffer, collected by centrifugation (40,000×g, 25 min), and re-suspended in 75 mM Tris-HCl pH 7.5, 12.5 mM MgCl2, 0.3 mM EDTA, 1 mM EGTA, and 250 mM sucrose. Membranes were frozen in liquid nitrogen until use. On the day of the assay, membranes were thawed and diluted in assay buffer (20 mM HEPES pH 7.4, 100 mM NaCl, 10 μg/ml saponin, 1 mM MgCl2) to give 500 μg/ml and mixed (v/v) with GDP in assay buffer for a final GDP concentration of 10 μM and incubated on ice for at least 15 min. PVT-WGA beads (Amersham, RPNQ001) were diluted in assay buffer at 50 mg/mL and mixed with GTPγ[^35S] (Amersham, SJ1308) diluted in assay buffer to give ˜25,000 dpm/10 μL and mixed vol/vol just before the start of the reaction. The reaction was started by adding 50 μL of test compound, 20 μL of the membranes:GDP mix, 10 μL of buffer, and 20 μL of the GTPγ[^35S]:beads mix in a 96 well plate Optiplate™ (PerkinElmer, 6005299) covered with topseal (TopCount™, PerkinElmer), mixed with an orbital shaker for 2 min, incubated for 1 hour at room temperature, centrifuged for 10 min at 2000 rpm, incubated for 1 h at room temperature, and counted for 1 min in a TopCount™ reader (PerkinElmer). Dose response curves and IC50 values (concentration to inhibit the reaction by 50%) were calculated by nonlinear regression using XLfit software (IDBS).
For antagonists testing, 10 μL of a reference agonist (R-γ-Me-Histamine) instead of 10 μL buffer was added at a concentration corresponding to the EC80 (30 nM). Control ligands were R-γ-Me-Histamine (Tocris, 0569), Imetit (Sigma, I-135), Thioperamide (Tocris, 0644), and Clobenpropit (Tocris, 0754) diluted in assay buffer.
The compounds provided herein were tested in the histamine H3 in vitro assay. In one embodiment, the respective HCl salts of the compounds provided herein were prepared using standard chemical procedures and tested in the histamine H3 in vitro assay.
Background: GTPγS resists hydrolysis and so accumulates on activated G proteins.

T1 sequence (Q9Y5N1 whole entry): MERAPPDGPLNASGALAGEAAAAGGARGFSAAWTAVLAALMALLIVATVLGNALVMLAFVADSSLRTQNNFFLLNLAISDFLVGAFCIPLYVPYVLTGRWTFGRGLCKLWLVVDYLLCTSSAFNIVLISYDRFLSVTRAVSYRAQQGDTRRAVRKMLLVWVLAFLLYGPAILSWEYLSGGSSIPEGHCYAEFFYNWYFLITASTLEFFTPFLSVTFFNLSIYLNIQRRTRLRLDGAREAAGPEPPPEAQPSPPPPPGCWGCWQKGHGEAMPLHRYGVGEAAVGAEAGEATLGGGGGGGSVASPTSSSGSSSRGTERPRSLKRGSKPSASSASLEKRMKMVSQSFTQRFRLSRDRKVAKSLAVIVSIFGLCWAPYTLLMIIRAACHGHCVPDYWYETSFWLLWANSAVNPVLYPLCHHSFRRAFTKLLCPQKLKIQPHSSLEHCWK

Turning to `c1cncc(-c2ccc3c(c2)nc2n3CCN(C3CCC3)CC2)c1` [Compound 115, 3-cyclobutyl-9-(pyridin-3-yl)-2,3,4,5-tetrahydro-1H-[1,4]diazepino[1,7-a]benzimidazole], the 50% inhibitory concentration (IC50) was at most 0.1 µM.
Turning to `OC(c1ccc2c(c1)nc1n2CCN(C2CCC2)CC1)c1cnccn1` (stereo not drawn) [Compound 120, (3-cyclobutyl-2,3,4,5-tetrahydro-1H-benzo[4,5]imidazo[1,2-d][1,4]diazepin-8-yl)(pyrazin-2-yl)methanol], the IC50 was at most 0.1 µM.
As for `O=C(c1ccc2c(c1)nc1n2CCN(C2CCC2)CC1)c1cnccn1` [Compound 121, (3-cyclobutyl-2,3,4,5-tetrahydro-1H-benzo[4,5]imidazo[1,2-d][1,4]diazepin-8-yl)(pyrazin-2-yl)methanone], the IC50 is at most 0.1 µM.
Regarding `c1cnc(Cc2ccc3c(c2)nc2n3CCN(C3CCC3)CC2)cn1` [Compound 122, 3-cyclobutyl-8-(pyrazin-2-ylmethyl)-2,3,4,5-tetrahydro-1H-benzo[4,5]imidazo[1,2-d][1,4]diazepine], the IC50 was at most 0.1 µM.
`c1cnc(-c2ccc3c(c2)nc2n3CCN(C3CCC3)CC2)nc1` [Compound 123, 3-cyclobutyl-8-(pyrimidin-2-yl)-2,3,4,5-tetrahydro-1H-benzo[4,5]imidazo[1,2-d][1,4]diazepine]: the IC50 was at most 0.1 µM.
For the molecule `c1cc(-c2ccc3c(c2)nc2n3CCN(C3CCC3)CC2)ncn1` [Compound 124, 3-cyclobutyl-8-(pyrimidin-4-yl)-2,3,4,5-tetrahydro-1H-benzo[4,5]imidazo[1,2-d][1,4]diazepine], the IC50 was at most 0.1 µM.
As to `c1cnnc(-c2ccc3c(c2)nc2n3CCN(C3CCC3)CC2)c1` [Compound 125, 3-cyclobutyl-8-(pyridazin-3-yl)-2,3,4,5-tetrahydro-1H-benzo[4,5]imidazo[1,2-d][1,4]diazepine], the 50% inhibitory concentration (IC50) is at most 0.1 µM.
The same measure for `c1ncc(-c2ccc3c(c2)nc2n3CCN(C3CCC3)CC2)cn1` [Compound 126, 3-cyclobutyl-8-(pyrimidin-5-yl)-2,3,4,5-tetrahydro-1H-benzo[4,5]imidazo[1,2-d][1,4]diazepine]: at most 0.01 µM; for `c1cc(-c2ccc3c(c2)nc2n3CCN(C3CCC3)CC2)cnn1` [Compound 127, 3-cyclobutyl-8-(pyridazin-4-yl)-2,3,4,5-tetrahydro-1H-benzo[4,5]imidazo[1,2-d][1,4]diazepine]: at most 0.1 µM; for `c1cc2c(cc1C1CCCN(C3CCC3)C1)nc1n2CCN(C2CCC2)CC1` (stereo not drawn) [Compound 128, 3-cyclobutyl-8-(1-cyclobutylpiperidin-3-yl)-2,3,4,5-tetrahydro-1H-benzo[4,5]imidazo[1,2-d][1,4]diazepine]: at most 0.01 µM.
The same measure for `c1cnc(N2CCCC(c3ccc4c(c3)nc3n4CCN(C4CCC4)CC3)C2)cn1` (stereo not drawn) [Compound 129, 3-cyclobutyl-8-(1-(pyrazin-2-yl)piperidin-3-yl)-2,3,4,5-tetrahydro-1H-benzo[4,5]imidazo[1,2-d][1,4]diazepine]: at most 0.01 µM.
`c1cnc(N2CCCC(c3ccc4c(c3)nc3n4CCN(C4CCC4)CC3)C2)nc1` (stereo not drawn) [Compound 130, 3-cyclobutyl-8-(1-(pyrimidin-2-yl)piperidin-3-yl)-2,3,4,5-tetrahydro-1H-benzo[4,5]imidazo[1,2-d][1,4]diazepine]: the IC50 is at most 0.1 µM.
As to `c1cc(-c2ccc3c(c2)nc2n3CCN(C3CCC3)CC2)nc(N2CCCC2)n1` [Compound 131, 3-cyclobutyl-8-(2-(pyrrolidin-1-yl)pyrimidin-4-yl)-2,3,4,5-tetrahydro-1H-benzo[4,5]imidazo[1,2-d][1,4]diazepine], the IC50 was at most 0.01 µM.
As to `COc1nccc(-c2ccc3c(c2)nc2n3CCN(C3CCC3)CC2)n1` [Compound 132, 3-cyclobutyl-8-(2-methoxypyrimidin-4-yl)-2,3,4,5-tetrahydro-1H-benzo[4,5]imidazo[1,2-d][1,4]diazepine], the IC50 was at most 0.1 µM.
For `c1cc2c(cc1-c1ccc(N3CCCC3)nn1)nc1n2CCN(C2CCC2)CC1` [Compound 133, 3-cyclobutyl-8-(6-(pyrrolidin-1-yl)pyridazin-3-yl)-2,3,4,5-tetrahydro-1H-benzo[4,5]imidazo[1,2-d][1,4]diazepine], the IC50 is at most 0.1 µM.
`COc1ccc(-c2ccc3c(c2)nc2n3CCN(C3CCC3)CC2)nn1` [Compound 134, 3-cyclobutyl-8-(6-methoxypyridazin-3-yl)-2,3,4,5-tetrahydro-1H-benzo[4,5]imidazo[1,2-d][1,4]diazepine]: the IC50 was at most 0.1 µM.
Consider `c1cc(-c2ccc3c(c2)nc2n3CCN(C3CCC3)CC2)nc(N2CCCC2)c1` [Compound 135, 3-cyclobutyl-8-(6-(pyrrolidin-1-yl)pyridin-2-yl)-2,3,4,5-tetrahydro-1H-benzo[4,5]imidazo[1,2-d][1,4]diazepine], for which the IC50 is at most 0.1 µM.
As for `CN1CCN(c2cccc(-c3ccc4c(c3)nc3n4CCN(C4CCC4)CC3)n2)CC1` [Compound 136, 3-cyclobutyl-8-(6-(4-methylpiperazin-1-yl)pyridin-2-yl)-2,3,4,5-tetrahydro-1H-benzo[4,5]imidazo[1,2-d][1,4]diazepine], the IC50 was at most 0.1 µM.
With `COc1cccc(-c2ccc3c(c2)nc2n3CCN(C3CCC3)CC2)n1` [Compound 137, 3-cyclobutyl-8-(6-methoxypyridin-2-yl)-2,3,4,5-tetrahydro-1H-benzo[4,5]imidazo[1,2-d][1,4]diazepine], the IC50 is at most 0.1 µM.
Turning to `NCCc1ccc2c(c1)nc1n2CCN(C2CCC2)CC1` [Compound 138, 2-(3-cyclobutyl-2,3,4,5-tetrahydro-1H-benzo[4,5]imidazo[1,2-d][1,4]diazepin-8-yl)ethanamine], the IC50 is at most 0.1 µM.
Turning to `CN(C)CCc1ccc2c(c1)nc1n2CCN(C2CCC2)CC1` [Compound 139, 2-(3-cyclobutyl-2,3,4,5-tetrahydro-1H-benzo[4,5]imidazo[1,2-d][1,4]diazepin-8-yl)-N,N-dimethylethanamine], the IC50 is at most 0.1 µM.
On to `NCc1ccc2c(c1)nc1n2CCN(C2CCC2)CC1` [Compound 140], for which the IC50 was at most 0.1 µM.
On to `O=C(NCc1ccc2c(c1)nc1n2CCN(C2CCC2)CC1)OCc1ccccc1` [Compound 141, benzyl((3-cyclobutyl-2,3,4,5-tetrahydro-1H-benzo[4,5]imidazo[1,2-d][1,4]diazepin-8-yl)methyl)carbamate], for which the IC50 is at most 0.1 µM.
In the case of `CN(Cc1ccc2c(c1)nc1n2CCN(C2CCC2)CC1)C(=O)OCc1ccccc1` [Compound 142, benzyl((3-cyclobutyl-2,3,4,5-tetrahydro-1H-benzo[4,5]imidazo[1,2-d][1,4]diazepin-8-yl)methyl)(methyl)carbamate], the IC50 was at most 0.1 µM.
Turning to `O=C1c2cc3nc4n(c3cc2C(=O)N1Cc1ccccc1)CCN(C1CCC1)CC4` [Compound 143, 2-benzyl-8-cyclobutyl-7,8,9,10-tetrahydro-[1,4]diazepino[1′,7′:1,2]imidazo[4,5-f]isoindole-1,3(2H,6H)-dione], the half-inhibitory concentration (IC50) was at least 1 µM.
For `c1ccc(CN2Cc3cc4nc5n(c4cc3C2)CCN(C2CCC2)CC5)cc1` [Compound 144, 2-benzyl-8-cyclobutyl-1,2,3,6,7,8,9,10-octahydro-[1,4]diazepino[1′,7′:1,2]imidazo[4,5-f]isoindole], the IC50 is at most 0.01 µM.
With `c1c2c(cc3c1nc1n3CCN(C3CCC3)CC1)CNC2` [Compound 145, 8-cyclobutyl-1,2,3,6,7,8,9,10-octahydro-[1,4]diazepino[1′,7′:1,2]imidazo[4,5-f]isoindole], the IC50 is at most 0.01 µM.
